Active and inactive are the calls of the source. The calls are words filed in the database; no cut-off is given here.
Columns and labels:
A549 = assay: Antiproliferative activity against human A549 cells assessed as reduction in cell viability incubated for 72 hrs by MTT assay; assay type: functional, cell-based; settings: A549, 72 h
MCF7 [1] = assay: Antiproliferative activity against human MCF7 cells assessed as reduction in cell viability incubated for 72 hrs by MTT assay; assay type: functional, cell-based; settings: MCF7, 72 h
SGC-7901 = assay: Antiproliferative activity against human SGC-7901 cells assessed as reduction in cell viability incubated for 72 hrs by MTT assay; assay type: functional, cell-based; settings: SGC-7901, 72 h
[2] = Toxicity in BALB/c nude mouse xenografted with human MCF7 cells assessed as effect on spleen at 10 mg/kg, iv administered every 2 days for 2 weeks; assay type: organism-based; settings: in vivo, 336 h
Sus scrofa = species on record: Sus scrofa; assay: Inhibition of porcine brain tubulin polymerization measured every 1 min for 90 mins by microplate based assay in the presence of GTP
MCF7 [3] = assay: Induction of apoptosis in human MCF7 cells assessed as necrotic cells at 3 fold IC50 after 48 hrs by Annexin-V-FITC/PI-staining based flow cytometric analysis (reference value: 1.61%); assay type: functional
[4] = Toxicity in BALB/c nude mouse xenografted with human MCF7 cells assessed as effect on heart at 2.5 mg/kg, iv administered every 2 days for 2 weeks; assay type: organism-based; settings: in vivo, 336 h
[5] = Toxicity in BALB/c nude mouse xenografted with human MCF7 cells assessed as effect on kidney at 2.5 mg/kg, iv administered every 2 days for 2 weeks; assay type: organism-based; settings: in vivo, 336 h
MCF7 [6] = assay: Induction of apoptosis in human MCF7 cells assessed as viable cells at 2 fold IC50 after 48 hrs by Annexin-V-FITC/PI-staining based flow cytometric analysis (reference value: 96.2%); assay type: functional
[7] = Toxicity in BALB/c nude mouse xenografted with human MCF7 cells assessed as effect on liver at 2.5 mg/kg, iv administered every 2 days for 2 weeks; assay type: organism-based; settings: in vivo, 336 h
[8] = Toxicity in BALB/c nude mouse xenografted with mouse 4T1 cells assessed as body weight loss at 2.5 mg/kg, iv administered every 2 days for 2 weeks relative to control; assay type: organism-based; settings: in vivo, 336 h
MCF7 [9] = assay: Induction of apoptosis in human MCF7 cells assessed as late apoptotic cells at 1 fold IC50 after 48 hrs by Annexin-V-FITC/PI-staining based flow cytometric analysis (reference value: 0.556%); assay type: functional
MCF7 [10] = assay: Inhibition of cell migration in human MCF7 cells measured after 24 hrs by phase-contrast microscopy based wound healing assay; assay type: functional; settings: dose 25-50 nM
[11] = Toxicity in BALB/c nude mouse xenografted with human MCF7 cells assessed as effect on spleen at 2.5 mg/kg, iv administered every 2 days for 2 weeks; assay type: organism-based; settings: in vivo, 336 h
MCF7 [12] = assay: Induction of apoptosis in human MCF7 cells assessed as viable cells at 3 fold IC50 after 48 hrs by Annexin-V-FITC/PI-staining based flow cytometric analysis (reference value: 96.2%); assay type: functional
MCF7 [13] = assay: Induction of apoptosis in human MCF7 cells assessed as late apoptotic cells at 2 fold IC50 after 48 hrs by Annexin-V-FITC/PI-staining based flow cytometric analysis (reference value: 0.556%); assay type: functional
Tubulin (Homo sapiens) [14] = target: T1, Tubulin (Homo sapiens) (UniProt P68371+Q9H4B7+P0DPH7+P68366+Q13509+Q71U36+P04350+Q3ZCM7+P07437+P68363+Q9BQE3+Q6PEY2+Q13885+Q9BVA1+Q9BUF5); assay: Inhibition of microtubule polymerization in human MCF7 cells assessed as disorganisation of microtubule by measuring short and wrapped structure at 2 times IC50 incubated for 24 hrs by DAPI staining based immunofluorescence assay; assay type: cell-based
Tubulin (Homo sapiens) [15] = target: T1, Tubulin (Homo sapiens); assay: Binding affinity to colchicine binding site of tubulin (unknown origin) assessed as decrease in fluorescence of colchicine-tubulin complex by fluorescence based assay; assay type: protein-complex assay
4T1 = assay: Antitumor activity against mouse 4T1 cells xenografted in BALB/c mouse assessed as reduction in tumor weight at 2.5 mg/kg, iv administered every 2 days for 2 weeks; assay type: functional; parameters: scale not given: the % may be the effect or the level left
MCF7 [16] = assay: Induction of apoptosis in human MCF7 cells assessed as early apoptotic cells at 1 fold IC50 after 48 hrs by Annexin-V-FITC/PI-staining based flow cytometric analysis (reference value: 1.59%); assay type: functional
MCF7 [17] = assay: Induction of apoptosis in human MCF7 cells assessed as necrotic cells at 1 fold IC50 after 48 hrs by Annexin-V-FITC/PI-staining based flow cytometric analysis (reference value: 1.61%); assay type: functional
MCF7 [18] = assay: Induction of apoptosis in human MCF7 cells assessed as necrotic cells at 2 fold IC50 after 48 hrs by Annexin-V-FITC/PI-staining based flow cytometric analysis (reference value: 1.61%); assay type: functional
MCF7 [19] = assay: Induction of cell cycle arrest in human MCF7 cells assessed as accumulation of cells at G2/M phase at 2 fold IC50 measured after 24 hrs by flow cytometry (reference value: 11 %); assay type: functional
MCF7 [20] = assay: Induction of apoptosis in human MCF7 cells assessed as early apoptotic cells at 3 fold IC50 after 48 hrs by Annexin-V-FITC/PI-staining based flow cytometric analysis (reference value: 1.59%); assay type: functional
MCF7 [21] = assay: Induction of apoptosis in human MCF7 cells assessed as early apoptotic cells at 2 fold IC50 after 48 hrs by Annexin-V-FITC/PI-staining based flow cytometric analysis (reference value: 1.59%); assay type: functional
MCF7 [22] = assay: Induction of apoptosis in human MCF7 cells assessed as viable cells at 1 fold IC50 after 48 hrs by Annexin-V-FITC/PI-staining based flow cytometric analysis (reference value: 96.2%); assay type: functional
MCF7 [23] = assay: Induction of cell cycle arrest in human MCF7 cells assessed as accumulation of cells at G2/M phase at 1 fold IC50 measured after 24 hrs by flow cytometry (reference value: 11 %); assay type: functional
MCF7 [24] = assay: Induction of cell cycle arrest in human MCF7 cells assessed as accumulation of cells at G2/M phase at 0.5 fold IC50 measured after 24 hrs by flow cytometry (reference value: 11 %); assay type: functional
MCF7 [25] = assay: Induction of apoptosis in human MCF7 cells assessed as late apoptotic cells at 3 fold IC50 after 48 hrs by Annexin-V-FITC/PI-staining based flow cytometric analysis (reference value: 0.556%); assay type: functional

## COc1cc(-n2cnc3ccc(-c4ccc(Cl)cc4Cl)cc32)cc(OC)c1OC
A549
  IC50: > 10 µM
MCF7 [1]
  IC50: 5.42 µM
SGC-7901
  IC50: > 10 µM

## COc1cc(-n2cnc3ccc(-c4ccc(O)cc4)cc32)cc(OC)c1OC
A549
  IC50: 5.09 µM
MCF7 [1]
  IC50: 4.16 µM
SGC-7901
  IC50: > 10 µM

## COc1cc(-n2cnc3ccc(-c4cccc([N+](=O)[O-])c4)cc32)cc(OC)c1OC
A549
  IC50: 5.41 µM
MCF7 [1]
  IC50: 4.56 µM
SGC-7901
  IC50: 0.38 µM

## COc1cc(-n2cnc3ccc(-c4cc(F)ccc4F)cc32)cc(OC)c1OC
A549
  IC50: 7.94 µM
MCF7 [1]
  IC50: 6.42 µM
SGC-7901
  IC50: 6.59 µM

## COc1cc(-n2cnc3ccc(-c4ccc([N+](=O)[O-])cc4)cc32)cc(OC)c1OC
A549
  IC50: 8.94 µM
MCF7 [1]
  IC50: 0.74 µM
SGC-7901
  IC50: 0.079 µM

## COc1cc2c(c(OC)c1OC)-c1ccc(OC)c(=O)cc1[C@@H](NC(C)=O)CC2 [COLCHICINE]
A549
  IC50: 0.095 µM
MCF7 [1]
  IC50: 0.018 µM
SGC-7901
  IC50: 0.007 µM

## COc1cc(-n2cnc3ccc(-c4cccc(O)c4)cc32)cc(OC)c1OC
A549
  IC50: 0.25 µM
MCF7 [1]
  IC50: 0.35 µM
SGC-7901
  IC50: 0.053 µM

## Nc1ccn([C@@H]2O[C@H](CO)[C@@H](O)C2(F)F)c(=O)n1 [GEMCITABINE]
[2]
  Activity: Toxic

## COc1cc(-n2cnc3ccc(-c4ccccc4)cc32)cc(OC)c1OC
A549
  IC50: 3.06 µM
MCF7 [1]
  IC50: 2.29 µM
SGC-7901
  IC50: 0.29 µM

## COc1cc(-n2cnc3ccc(-c4cccc(C)c4C)cc32)cc(OC)c1OC
A549
  IC50: 9.25 µM
MCF7 [1]
  IC50: 2.15 µM
SGC-7901
  IC50: 3.04 µM

## COc1cc(-n2cnc3ccc(-c4ccc(C(F)(F)F)cc4)cc32)cc(OC)c1OC
A549
  IC50: 3.39 µM
MCF7 [1]
  IC50: 0.76 µM
SGC-7901
  IC50: 0.89 µM

## COc1cc(-n2cnc3ccc(-c4ccc(C)cc4F)cc32)cc(OC)c1OC
A549
  IC50: > 10 µM
MCF7 [1]
  IC50: 0.056 µM
SGC-7901
  IC50: 5.65 µM

## COc1cc(-n2cnc3ccc(-c4ccc(F)cc4)cc32)cc(OC)c1OC
A549
  IC50: 6.74 µM
MCF7 [1]
  IC50: 1.77 µM
SGC-7901
  IC50: 3.5 µM

## COc1cc(-c2ccc3ncn(-c4cc(OC)c(OC)c(OC)c4)c3c2)cc(OC)c1OC
A549
  IC50: > 10 µM
MCF7 [1]
  IC50: > 10 µM
SGC-7901
  IC50: > 10 µM

## COc1ccc(-c2ccc3ncn(-c4cc(OC)c(OC)c(OC)c4)c3c2)cc1O
Sus scrofa
  inhibition: Dose-Dependent Effect
MCF7 [3]
  Activity: 0.271%
[4]
  Activity: Non-Toxic
[5]
  Activity: Non-Toxic
MCF7 [6]
  Activity: 52.8%
[7]
  Activity: Non-Toxic
[8]
  Activity: Non-Toxic
MCF7 [9]
  Activity: 4.4%
MCF7 [10]
  inhibition: Dose-Dependent Effect
[11]
  Activity: Non-Toxic
MCF7 [12]
  Activity: 50.6%
MCF7 [13]
  Activity: 10.4%
Tubulin (Homo sapiens) [14]
  inhibition: Active
Tubulin (Homo sapiens) [15]
  Activity: Active
4T1
  Activity: 52%
A549
  IC50: 0.2 µM
MCF7 [16]
  Activity: 16%
MCF7 [17]
  Activity: 1.51%
MCF7 [18]
  Activity: 0.96%
MCF7 [1]
  IC50: 0.037 µM
MCF7 [19]
  Activity: 72%
MCF7 [20]
  Activity: 37.6%
MCF7 [21]
  Activity: 35.6%
MCF7 [22]
  Activity: 75.1%
MCF7 [23]
  Activity: 22%
SGC-7901
  IC50: 0.044 µM
MCF7 [24]
  Activity: 15%
MCF7 [25]
  Activity: 11.4%

## COc1cc(-n2cnc3ccc(-c4cccc(Cl)c4)cc32)cc(OC)c1OC
A549
  IC50: 7.05 µM
MCF7 [1]
  IC50: 3.12 µM
SGC-7901
  IC50: 1.49 µM

## COc1ccc(-c2ccc3ncn(-c4cc(OC)c(OC)c(OC)c4)c3c2)cc1
A549
  IC50: > 10 µM
MCF7 [1]
  IC50: 0.21 µM
SGC-7901
  IC50: 0.082 µM

## COc1cccc(-c2ccc3ncn(-c4cc(OC)c(OC)c(OC)c4)c3c2)c1
A549
  IC50: 3.18 µM
MCF7 [1]
  IC50: 1.61 µM
SGC-7901
  IC50: 3.31 µM

## COc1cc(-n2cnc3ccc(-c4ccc(Cl)cc4)cc32)cc(OC)c1OC
A549
  IC50: > 10 µM
MCF7 [1]
  IC50: 1.32 µM
SGC-7901
  IC50: 1.27 µM

## COc1cc(-n2cnc3ccc(-c4cccc(N)c4)cc32)cc(OC)c1OC
A549
  IC50: 0.64 µM
MCF7 [1]
  IC50: 0.18 µM
SGC-7901
  IC50: 0.021 µM

## COc1ccccc1-c1ccc2ncn(-c3cc(OC)c(OC)c(OC)c3)c2c1
A549
  IC50: 4.32 µM
MCF7 [1]
  IC50: 1.75 µM
SGC-7901
  IC50: 5.05 µM

## COc1cc(-n2cnc3ccc(-c4ccc(C(C)=O)cc4)cc32)cc(OC)c1OC
A549
  IC50: 2.51 µM
MCF7 [1]
  IC50: 1.54 µM
SGC-7901
  IC50: 0.45 µM

## COc1cc(-n2cnc3ccc(-c4cccc(F)c4)cc32)cc(OC)c1OC
A549
  IC50: 5.27 µM
MCF7 [1]
  IC50: 2.35 µM
SGC-7901
  IC50: 2.49 µM

## COc1cc(-n2cnc3ccc(-c4ccc(C)cc4)cc32)cc(OC)c1OC
A549
  IC50: 1.94 µM
MCF7 [1]
  IC50: 0.11 µM
SGC-7901
  IC50: 0.2 µM

## CCOc1ccc(-c2ccc3ncn(-c4cc(OC)c(OC)c(OC)c4)c3c2)cc1
A549
  IC50: 8.55 µM
MCF7 [1]
  IC50: 1.71 µM
SGC-7901
  IC50: 2.97 µM

## COc1ccc(-c2ccc3ncn(-c4cc(OC)c(OC)c(OC)c4)c3c2)cc1F
A549
  IC50: 1.43 µM
MCF7 [1]
  IC50: 0.52 µM
SGC-7901
  IC50: 0.43 µM

## COc1cc(-n2cnc3ccc(-c4ccccc4Cl)cc32)cc(OC)c1OC
A549
  IC50: > 10 µM
MCF7 [1]
  IC50: > 10 µM
SGC-7901
  IC50: > 10 µM

## COc1cc(-n2cnc3ccc(-c4cccc(C)c4)cc32)cc(OC)c1OC
A549
  IC50: 3.82 µM
MCF7 [1]
  IC50: 0.36 µM
SGC-7901
  IC50: 1.24 µM

From ChEMBL document CHEMBL5038611, “Design, synthesis and bioevaluation of 6-aryl-1-(3,4,5-trimethoxyphenyl)-1H-benzo[d]imidazoles as tubulin polymerization inhibitors” (Eur J Med Chem, 2021)
